Assay results reported in patent US7423015B1, “Antihelminthic drugs as a treatment for hyperproliferative diseases” (Board of Regents, The University of Texas System, priority 2001, dated 2008).

Tests used:
[1] = system: SW480; assay: Cell viability, trypan blue cell count assay; type: cell-based; set-up: dose or concentration left out as unconfirmed; settings: Homo sapiens, SW480, read-out: % Cell Viability
Protocol: (§1) All cell lines were grown in RPMI 1640 medium supplemented with 5% fetal bovine serum and 5% CO2. All experiments were done when the cells were 70% confluent. For cell growth measurements, 5×10^4 cells were plated in each well of six-well plates. Control and BZ-treated (0.05 μg/ml) cells were trypsinized and counted using a hemocytometer. Experiments were done in triplicate and the mean and standard deviation were determined by standard methods.
(§2) To further investigate the relationship between the induction of functional p53 and the subsequent apoptosis mediated by these drugs, the inventors posited that if BZs require wild-type p53 in order to exert their effect, then fenbendazole and mebendazole would not be cytotoxic to the many tumor lines producing a mutated p53 protein. To investigate this possibility, human cell lines derived from NSCLC origins of differing p53 status were further analyzed by a 5-day cell growth assay. The cells were plated onto a six-well plate, and the viability of the cells was determined by trypan blue exclusion. Cells were counted on a hemocytometer. The values shown are the means ±standard deviation of triplicate samples. Duplicate experiments gave similar results. H322 is a human lung adenocarcinoma line that produces a mutant p53 protein. […] However, fenbendazole and mebendazole induced nuclear accumulation of p53 only in the H460 cell line, which carries wild-type p53 genes. […] Cells were exposed to FZ (filled bar) or MZ (hatched bar) for 24 hr. A concentration of 0.05 μg/ml FZ and MZ was used. An immunoblot analysis of nuclear p53 was also performed to determine whether these drugs induced the production of p53. Equal amounts of protein extracts from each cell line before and after treatment were used for this analysis.

[2] = system: MDA 231; assay: Cell viability, trypan blue cell count assay; type: cell-based; set-up: dose or concentration left out as unconfirmed; settings: Homo sapiens, MDA-MB-231, read-out: % Cell Viability
Protocol: as §1, §2

[3] = system: H322; assay: Cell viability, trypan blue cell count assay; type: cell-based; set-up: dose or concentration left out as unconfirmed; settings: Homo sapiens, NCI-H322, read-out: % Cell Viability
Protocol: as §1, §2

[4] = system: RD; assay: Cell viability, trypan blue cell count assay; type: cell-based; set-up: dose or concentration left out as unconfirmed; settings: Homo sapiens, read-out: % Cell Viability
Protocol: as §1, §2

[5] = system: p53 protein; assay: p53 induction, immunoblot analysis of nuclear extracts; type: cell-based, human; settings: H460; 0.05 μg/ml, exposure 1 to 24 hr
Protocol: Cells were grown in 6-cm dishes, cultured, and treated as described above. To prepare the whole-cell lysates, the medium was removed and cells were washed twice with ice-cold Tris-buffered saline (TBS) (150 mM NaCl, 10 mM Tris; pH 7.6) and lysed with 0.5 ml of lysis buffer (10 mM Tris, 150 mM NaCl, 1% Triton X-100, 5 mM EDTA, 25 mM glycerphosphate, 1 mM phenylmethylsulphonyl fluoride (PMSF), 2 mM benzamidine, […], and 1 mM sodium orthovanadate) for 15 min. The lysed cells were then transferred to 1.5 ml microtubes, centrifuged at 15,000×g for 10 min at 4° C., and the supernatants collected mixed with Laemmli's sample buffer and subjected to western blot analysis as described elsewhere (Nare et al., 1994). Blots were probed with anti-p53 monoclonal antibody Bp53-12 (Santa Cruz Biotechnology, Inc.) and the immunocomplex was detected by the Enhanced Chemiluminescence kit according to the manufacturer's directions (Amersham).
Cell extracts were prepared from H460 cells exposed to 0.05 μg/ml FZ or MZ for various durations (1 to 24 hr). The effect of FZ and MZ on the nuclear accumulation of p53 appeared to be gradual and was not significant within the first hour of exposure. […] The appearance of p53 in response to drug treatment also coincided with the initiation of apoptosis, which was detectable by 24 hr, as well as shown earlier by TdT FACS analysis. […] Total RNA was extracted and […] was used for the analysis. p53 protein was detected by immunoblot analysis.

[6] = system: adenovirus expressed MDA-7; assay: Adenovirus expressed MDA-7 levels; type: cell-based
[7] = system: Ad-luciferase transgene expression; assay: Ad-luciferase transgene expression with or without MZ; type: cell-based; settings: six cell lines, MZ at 50 ng/ml, 48 hours
Protocol: FIG. 8. Expression of Ad-luciferase in H1299 cells with and without MZ. H1299 cells were treated with media (UT) or Ad-luciferase at increasing multiplicities of infection, with or without MZ at 50 ng/ml. Forty-eight hours later, cells were harvested and luciferase activity assayed.
FIG. 9. Expression of Ad-luciferase in A549 cells with and without MZ. A549 cells were plated in 6-well dishes and either treated with media (UT) or Ad-luciferase at increasing multiplicities of infection, with or without MZ at 50 ng/ml. Forty-eight hours later, cells were harvested and luciferase activity assayed.
Next, a series of six cell lines were transfected with Ad-luciferase at increasing multiplicities of infection, with or without MZ at 50 ng/ml.

[8] = system: neovascularization induced by A549 cells; assay: Angiogenesis by tumor cells in vivo, dorsal air-sac method; set-up: species or system nude mouse; settings: MZ oral suspension 1 mg/mouse/day, day 5
Protocol: In vivo angiogenesis was assayed by the dorsal air-sac method (Bouvet et al., 1998). Briefly, 1×10^7 cultured A549 cells were suspended in PBS and packed into round cellulose ester membrane chambers with a diameter of 14 mm (pore size, 0.45 μm; Millipore, Bedford, Mass.). The chambers were then implanted into a dorsal air sac of a nude mouse. After the chamber implantation mice were fed with MZ oral suspension (1 mg/mouse/day). Five mice were used in each group. The mice were killed on day 5, and the subcutaneous region overlying the chamber in each mouse was photographed. The experiment was repeated two times with identical results.
In vivo angiogenesis was further assayed by the dorsal air-sac method (Tanaka et al., 1989). Subcutaneous neovascularization overlying a semipermeable membrane chamber containing […] cells. […] In order to exclude the possibility that the reduced vasculature was due to lack of viable tumor cells in the chamber, cells were prelabeled with fluorescent dye and injected into the chamber. After the blood vessels were photographed, the tumor cells on the membrane was examined under a fluorescence microscope.

| SMILES | viability [1] [%] | viability [2] [%] | viability [3] [%] | viability [4] [%] | time at which nuclear accumulation of p53 became significantly detectable [5] | time at which nuclear accumulation of p53 peaked [5] [h] | levels of adenovirus expressed MDA-7 [6] | transgene expression [7] | number and caliber of blood vessels [8] |
| --- | --- | --- | --- | --- | --- | --- | --- | --- | --- |
| COC(=O)Nc1nc2ccc(Sc3ccccc3)cc2[nH]1 [Fenbendazole, methy 5-(phenylthio)-2-benzimidazole-2-carbamate] | 70.6 ± 7.6 | 65.3 ± 5 | 65.9 ± 4.9 | 78.7 ± 12 | about 16 hr | 24 |  |  |  |
| COC(=O)Nc1nc2ccc(C(=O)c3ccccc3)cc2[nH]1 [Mebendazole, Methyl 5-benzoylbenzimidazole-2-carbamate] | 63.6 ± 13.3 | 66.2 ± 15.8 | 68.5 ± 3.7 | 72.2 ± 2.8 | about 16 hr | 24 | increased levels | significant increases | significantly reduced |
